Here are results for 1 compound from US10758584B2, “Topical formulation for promoting wound healing” (Oneness Biotech Co. LTD, priority 2016, dated 2020).

The data set in a line: clinical. As to conditions: human, in vivo. The procedure: […]. The PA and CA extracts in the topical formulation were prepared according to the methods described herein. The topical formulation is cream-based and further comprises cetostearyl alcohol (about 1.0-10% by weight, for example, about 3.5-6.5% by weight), white petrolatum and liquid petrolatum 350 cps (about 5%-30% by weight in total, for example, about 5-15% by weight in total), methyl paraben and propyl paraben (about 0.005% to 0.2% by weight in total, for example, 0.005-0.2% by weight in total), emulsifiers such as Span® 60 and Tween® 60 (about 0.5-10% by weight in total, for example, about 0.5-5% by weight in total), and one or more solvent such as propylene glycol (about 2-20% by weight, for example, about 4-10% by weight). The extracts were formulated in a cream-based topical formulation that additionally contains liquid petrolatum, propylene glycol, cetyl stearyl alcohol, white petrolatum, Span® 60, Tween® 60, propyl paraben, methyl paraben, and water.
A total of 12 patients completed the study. Each subject received one dose of the cream formulation on Day 1 followed by the blood sampling collection, then twice per day from Day 2 to Day 13, and a further blood sampling collection was scheduled on Day 14 after the final dose. […].

`COc1ccc(-c2cc(=O)c3c(O)c(OC)c(OC)cc3o2)cc1` [salvigenin] gave a concentration at 1 day of no more than 0.0124 ng/mL and a concentration at 14 day of no more than 0.017 ng/mL. The “number of patients with detectable plasma concentrations” value (1 day) stood at 2. For the same compound, the “number of patients with detectable plasma concentrations” value (14 day) amounted to 4.
